# In US9365851B2, “Spalt-like transcription factor 4 (SALL4) and uses thereof” (National University of Singapore, priority 2011, dated 2016):
# Read-outs that look alike come from different tables or passages of the source.
# Legend:
# c-Myc = c-Myc protein expression in SNU-398 cells; assay type: cell-based, human
# Protocol: Also tested was whether wt peptide could affect genes that were known to be activated by SALL4, such as c-Myc. SNU-398 cells treated with wt or Scr peptide were evaluated for c-Myc protein expression. No change was observed among SNU-398 cells that were not treated or treated with either wt, Scr or TSA. When combined, the observation on the biological effects of the peptide treatment and the expression of Pten/Akt pathway in these cells, it was noticed that the wt peptide and its role in cell death promotion was correlated to its effect on the expression levels of Pten/Akt.
# primary human AML cells = assay: Viability / cell death of primary AML cells in culture (Annexin V/PI flow cytometry); assay type: cell-based; settings: for cell death rate: 96 h after first treatment, Chariot (Example 1)
# Protocol: Whether a therapeutic effect could be achieved by using this wt peptide on primary AML samples was then tested. Ninety-six hours after the first treatment of peptides (wt, Mut, or Scr) or TSA in the primary AML cells collected from a patient, the remaining alive cells were measured by FACS analysis using Annexin V/PI staining. During the treatment the wt and control peptides (Mut or Scr) were re-introduced twice at the 24-hour and the 48-hour time points along with the Chariot (Active Motif) transfection agent. A significant effect of the wt peptide on the cell viability of primary AML cells was observed. While there was a 56% cell death rate with wt peptide treatment at the end of the fourth day, the cell death rate was only 35% in the non-treated or treated with the control peptide, and the cell death rate was 44% in cells treated with TSA (FIG. 5).
# Three frozen primary AML patient samples were used for this study, and were obtained from Brigham and Women's Hospital at Boston, Mass., USA, under approved IRB protocol (No. 2011-P-000096/1). Culture conditions were adapted from a published protocol 28-31. In brief, the frozen AML samples were incubated in RPMI1640 medium without serum for 1 to 3 h after thawing and DNA fragments from dead cells were removed by washing. After three washes with the medium, 1×10^6 cells per well of 12-well plate were maintained in 1 ml of serum-free medium (StemSpan-H3000, Catalogue #09800, StemCell Technologies) supplied with StemSpan CC 100 cytokine cocktail (Catalogue #02690, StemCell Technologies) that supports 40-50% viability at 72 hours postthaw culturing based on our experience. These cells were then used for the down-regulation of SALL4 (see details below) and peptide treatment experiments.
# SALL4 is critical for leukemic cell survival in the AML cell line NB4 (Yang, et al., Blood, 112:805-813 (2008)). Asked herein was whether this is also the case for primary human AML samples. Three SALL4/PTEN-expressing AML samples were selected for experiments in which cells were first tested under culture conditions that maintain/promote viability of AML cells 28-31. The SALL4-specific shRNA that has been validated in previous studies (Yang et al., PLoS One, 5:e10766 (2010); Yang, et al., Blood, 112:805-813 (2008); Yang et al., PNAS USA, 104:10494-10499 (2007)) was utilized in these AML patient samples (FIG. 11A). 48 hours after transduction, the viability of cells was determined by flow cytometry after staining with Annexin V and propidium iodide (PI). Live cells are Annexin V negative and PI negative, the double negative population. […] Furthermore, in a xenotransplant model, increased survival of leukemic cell recipient NOD/SCID/IL2rγ-null (NSG) mice following knocking down SALL4 expression in the primary AML samples was observed (FIG. 11C). Fatal AML with onset ranging from one to three months developed in all recipients receiving AML cells transduced with a scrambled control shRNA (n=7), while only 2 out of 6 mice receiving SALL4 shRNA-treated primary AML developed leukemia. While the median survival of scrambled shRNA control recipient mice (n=7) was 33 days, the median survival of SALL4 shRNA recipient mice (n=6) was 109 days (P=0.01). The transplanted leukemia disease was characterized by immature blasts with human CD45 expression in peripheral blood, bone marrow, and tissues such as liver and spleen (FIG. 11D to 11F).
# Next tested was whether a therapeutic effect could be achieved by using the wild type peptide in primary human AML samples. The same SALL4/PTEN expressing primary AML samples were selected for experiments under the same culture conditions as mentioned above. Leukemic cells were subjected to three treatment regimes: peptide (wild type or scrambled), peptide plus PTEN inhibitor, or HDAC inhibitor (TSA). To assist peptide delivery into cells, a carrier agent, Pep-1 was used for all the experiments, and control treated cells were given pep-1 alone (mock). […]
Compound,c-Myc protein expression (c-Myc),"cell death rate (primary human AML cells; primary AML, Annexin V/PI)","cell viability (primary human AML cells; primary AML, fourth day, Pep-1 carrier, untreated set as 100 (Example 2)) [%]",viability after SALL4 knock-down (primary human AML cells) [%],"increase in cell apoptosis and cell death (primary human AML cells; primary AML, Annexin V/PI, after SALL4 knock-down) [fold]","cell viability (primary human AML cells; human, 96 h) [%]",cell viability (primary human AML cells)
"CC(/C=C/C(=O)NO)=C\[C@@H](C)C(=O)c1ccc(N(C)C)cc1 [TSA, Trichostatin A, reference compound]",No change,44%,54.7,,,,
"GATGCCTTGAAACAAGCCAAGCTACCTCA (chemistry not given here) [compound 7412, SALL4 shRNA used in primary AML cells]",,,,80.9,2,,
"H-MSRRKQAKPQHI-OH [wt peptide, MSRRKQAKPQHI]",No change,56%,,,,55.3,
"Scr peptide: same 12 amino acids as the wt peptide, but in a scrambled sequence; negative control (SRMRQKIHPKIQ) [reference compound]",No change,the same value as the untreated,,,,,over 97%
